In article PMC12186255, “Discovery and Characterization of Small Molecule Inhibitors Targeting Exonuclease 1 for Homologous Recombination-Deficient Cancer Therapy” (ACS Chemical Biology, 2025):
“Also recorded” adds a separate entry of the source.

Tests used:
MDA-MB-231 cells = test: Gel-based phospho-RPA end resection assay; format: cell-based, human; settings: inhibitor overnight then 2 μM CPT 2 h, C5 10 μM
Experimental: The levels of RPA32 and phosphorylated RPA32 (S33) were analyzed by Western blotting using antibodies against RPA32 and phosphorylated RPA32 (S33). The total level of tubulin was used as a control. (b) Ratio of P-RPA:RPA levels calculated from panel a. […] U2OS cells carrying a GFP reporter for HR were infected with adenovirus expressing the I-SceI restriction enzyme. […] U2OS cells carrying a GFP reporter for HR were infected with adenovirus expressing the I-SceI restriction enzyme. […] For panels c and d, after 48 h, the cells were harvested, and the GFP-positive cells were analyzed by flow cytometry. Values are the mean ± S.D. of three independent experiments.
The treated cells were then lysed in the SDS-PAGE sample buffer, and the lysate was separated by SDS-PAGE prior to immobilization on a nitrocellulose membrane and Western blotting. Antibodies against unphosphorylated RPA, S33-P-RPA2, and tubulin were subsequently assayed according to the manufacturer’s recommendations. The ratio of P-RPA/RPA levels were quantified via ImageJ.

OVCAR-5 = test: Cell line drug profiling, CellTiter Glo; format: cell-based; settings: Homo sapiens; OVCAR-5, Ovarian, 72 h
Experimental: (§1) We tested the cytotoxicity of representative compounds from the seven EXO1i scaffolds against a subset of the NCI-60 cell line panel along with three additional pancreatic cell lines (FG, AsPC1, and CaPan2). In general, cells were seeded in 384-well tissue culture-treated plates overnight and treated with various concentrations of each hit compound (a serial 3-fold dilution from 50 μM for all tested hits). Each concentration was performed in duplicate. Cell viability was then measured by CellTiter Glo (Promega) after 72 h of treatment.

SNB-19 = test: Cell line drug profiling, CellTiter Glo; format: cell-based; settings: Homo sapiens; SNB-19, Central Nervous System, 72 h
Experimental: as §1

DU145 = test: Cell line drug profiling, CellTiter Glo; format: cell-based; settings: Homo sapiens, DU-145; DU145, Prostate, 72 h
Experimental: as §1

T-47D = test: Cell line drug profiling, CellTiter Glo; format: cell-based; settings: Homo sapiens, T47D, Breast, 72 h
Experimental: as §1

U251 = test: Cell line drug profiling, CellTiter Glo; format: cell-based; settings: Homo sapiens, U-251; U251, Central Nervous System, 72 h
Experimental: as §1

UACC-257 = test: Cell line drug profiling, CellTiter Glo; format: cell-based; settings: Homo sapiens; UACC-257, Melanoma, 72 h
Experimental: as §1

H23 = test: Cell line drug profiling, CellTiter Glo; format: cell-based; settings: Homo sapiens, NCI-H23; H23, Lung, 72 h
Experimental: as §1

OVCAR-4 = test: Cell line drug profiling, CellTiter Glo; format: cell-based; settings: Homo sapiens; OVCAR-4, Ovarian, 72 h
Experimental: as §1

OVCAR-8 = test: Cell line drug profiling, CellTiter Glo; format: cell-based; settings: Homo sapiens; OVCAR-8, Ovarian, 72 h
Experimental: as §1

IGR-OV1 = test: Cell line drug profiling, CellTiter Glo; format: cell-based; settings: Homo sapiens, IGROV-1; IGR-OV1, Ovarian, 72 h
Experimental: as §1

DU145 (B3) = test: Cell line drug profiling, CellTiter Glo; format: cell-based; settings: Homo sapiens, DU-145, Prostate, 72 h
Experimental: as §1

PC3 = test: Cell line drug profiling, CellTiter Glo; format: cell-based; settings: Homo sapiens, PC-3; PC3, Prostate, 72 h
Experimental: as §1

NCI/ADR-RES = test: Cell line drug profiling, CellTiter Glo; format: cell-based; settings: Homo sapiens, Ovarian, 72 h
Experimental: as §1

SKOV-3 = test: Cell line drug profiling, CellTiter Glo; format: cell-based; settings: Homo sapiens, SK-OV-3; SKOV-3, Ovarian, 72 h
Experimental: as §1

EXO1 D225A = molecular target: T1, EXO1 D225A (Homo sapiens, UniProt Q9UQ84, D225A); test: In vitro exonuclease activity of mutant with inhibitors; format: biochemical; settings: EXO1 25 nM, DNA substrate 250 nM; C200 0-5 μM
T1 construct: The N-terminal domain of human EXO1 (hEXO1) (residues 1–345) was cloned into the pET28b vector; made in house; host or cells: E. coli BL21(DE3) and Rosetta 2(DE3)
T1 sequence (Q9UQ84 1-345 D225A): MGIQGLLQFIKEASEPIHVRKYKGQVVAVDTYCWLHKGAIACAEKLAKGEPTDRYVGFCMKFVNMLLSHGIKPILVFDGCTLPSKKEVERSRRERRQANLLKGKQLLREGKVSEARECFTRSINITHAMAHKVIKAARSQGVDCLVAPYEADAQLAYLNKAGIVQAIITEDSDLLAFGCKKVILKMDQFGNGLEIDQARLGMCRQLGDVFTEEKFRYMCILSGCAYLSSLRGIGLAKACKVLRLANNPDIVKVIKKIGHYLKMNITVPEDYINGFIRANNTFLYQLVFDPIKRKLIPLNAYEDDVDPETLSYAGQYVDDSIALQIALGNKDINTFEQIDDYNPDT
Experimental: (§2) Simultaneously, we tested the effect of each point mutation on the in vitro exonuclease activity. Most mutations in site 1 result in some loss of enzymatic activity compared to WT EXO1 (Figure S13; WT:Figure S13a), particularly K85A and D225A (Figure S13b,f). […] However, at concentrations of 20 and 40 μM, the mutants (K85A and R92A) behaved more like WT (Figure b).
(§3) In both panels a and b, DMSO without inhibitors was used as a control, and its relative binding activity was set equal to 1.0. The EXO1 enzyme concentration was 25 nM, and the DNA substrate concentration was 250 nM. The values shown are the mean ± S.D. of three independent experiments.
(§4) The N-terminal domain of human EXO1 (hEXO1) (residues 1–345) was cloned into the pET28b vector. The following mutations were introduced via site-directed mutagenesis based on the findings of molecular docking analysis: K85A, E89A, R92A, I125A, D225A, K292A, and K294A (oligonucleotide primers listed in Table S1) following the established protocol.

EXO1 I125A = molecular target: T2, EXO1 I125A (Homo sapiens, UniProt Q9UQ84, I125A); test: as above; format: biochemical; settings: EXO1 25 nM, DNA substrate 250 nM
T2 construct: The N-terminal domain of human EXO1 (hEXO1) (residues 1–345) was cloned into the pET28b vector; made in house; host or cells: E. coli BL21(DE3) and Rosetta 2(DE3)
T2 sequence (Q9UQ84 1-345 I125A): as the sequence (Q9UQ84 1-345 D225A) above, with I125A, A225D counted along it
Experimental: as §2, §3, §4

EXO1 E89A = molecular target: T3, EXO1 E89A (Homo sapiens, UniProt Q9UQ84, E89A); test: as above; format: biochemical; settings: EXO1 25 nM, DNA substrate 250 nM
T3 construct: The N-terminal domain of human EXO1 (hEXO1) (residues 1–345) was cloned into the pET28b vector; made in house; host or cells: E. coli BL21(DE3) and Rosetta 2(DE3)
T3 sequence (Q9UQ84 1-345 E89A): as the sequence (Q9UQ84 1-345 D225A) above, with E89A, A225D counted along it
Experimental: as §2, §3, §4

[1] = test system: MDA-MB-436 (BRCA1−) and MDA-MB-436 (BRCA1+) cells; test: In vitro cell survival assay (cell counting); format: cell-based, human; settings: 1-50 μM F684, 5 days
Experimental: For this assay, 10,000 cells were seeded per well in a 24-well plate and incubated in a complete culture medium containing DMSO or the EXO1i of interest at 37 °C with 5% CO2. The medium was refreshed every 3 to 4 days by replacing it with a fresh medium containing DMSO or EXO1i. After 5 days, the cells were trypsinized, and the survival curve was generated by manual cell counting.

Structure (SMILES) | CPT-induced P-RPA levels (DNA end resection) (MDA-MB-231 cells) | IC50 (OVCAR-5) [µM] | IC50 (SNB-19) [µM] | IC50 (DU145) [µM] | IC50 (T-47D) [µM] | IC50 (U251) [µM] | IC50 (UACC-257) [µM] | IC50 (H23) [µM] | IC50 (OVCAR-4) [µM] | IC50 (OVCAR-8) [µM] | IC50 (IGR-OV1) [µM] | IC50 (DU145 (B3)) [µM] | IC50 (PC3) [µM] | IC50 (NCI/ADR-RES) [µM] | IC50 (SKOV-3) [µM] | inhibitory activity against EXO1 D225A mutant vs WT (EXO1 D225A) | inhibitory activity against EXO1 I125A mutant vs WT (EXO1 I125A) | inhibitory activity against EXO1 E89A mutant vs WT (EXO1 E89A) | cell killing (survival), BRCA1– vs BRCA1+ cells [1]
COC(=O)c1nc(-c2ccc(OC)cc2)nc(O)c1O [C200] | significantly reduced | > 50 | > 50 | 49.4 | > 50 | > 50 | > 50 | > 50 | > 50 | > 50 | > 50 | > 50 | > 50 | > 50 | > 50 | partially lost its inhibitory effect; also recorded: abolished | did not have a significant | did not have a significant | –
Cc1cccc(N2CCN(c3ccc(NS(=O)(=O)c4ccccc4)c(C(=O)O)c3)CC2)c1C [F684] | significantly reduced | – | – | – | – | – | – | – | – | – | – | – | – | – | – | – | – | – | more effective in killing BRCA1– cells compared to BRCA1+ cells
